According to paper PMC7179653 (Antimicrobial Agents and Chemotherapy, 2020):
Read-outs that look alike come from different tables or passages of the source. Blank lines part the entries; values can stand above or below the molecule they belong to.

How the values were obtained:
clinical = conditions: human, in vivo
Method: All participants in the active group received a single 2,000-mg dose of both drugs on day 3 and q8h on days 4 to 8, with a final single dose of both drugs on the morning of day 9. A washout period of approximately 24 h between treatments was provided. Study treatments were administered as 30-min (SAD study) or 90-min (MAD study) i.v. infusions, the latter to investigate the pharmacokinetics using a longer infusion time, which is commonly used to increase the time above the MIC of β-lactams ([15]). The choice of a 90-min infusion time for the MAD study was dictated by the stability and toxicology data available at the time the study was being designed. […] Safety assessments included monitoring of AEs, laboratory safety tests (hematology, serum chemistry, and urinalysis), 12-lead ECG (discrete recordings and 24-h Holter recording), and vital signs (blood pressure, pulse rate, and body temperature). In the SAD study, safety assessments were performed predose at screening, at day 1, postdose periodically on days 1, 2, and 7 (follow-up), and at early withdrawal, if relevant. […] In the MAD study, safety assessments were done predose at screening, at day 2, postdose periodically on days 1, 2, 4, 7, and 8, on days 13 to 15 (follow-up), and at early withdrawal, if relevant. […] On all other days, a single predose sample was collected for pharmacokinetic evaluation prior to the morning infusion. Blood was collected into lithium-heparin tubes and stored at a nominal –80°C temperature until analysis.

[1] = parameters: method as in PMID 25813217, PMID 29914955, PMID 27527080, PMID 29437614; conditions: healthy individuals; cited from earlier work

Tmax (clinical): 1 h | clearance (clinical; CL): 253 mL/min | CL renal (clinical; CLr): 161 mL/min | Vd (clinical; Vdss): 19.8 L | half-life (clinical; t1/2): 1.3 h
Compound: C[C@@H](O)[C@H]1C(=O)N2C(C(=O)O)=C(S[C@@H]3CN[C@H](C(=O)N(C)C)C3)[C@H](C)[C@H]12 [meropenem]

Compound: O=C(NC1CCNCC1)[C@@H]1CC[C@@H]2CN1C(=O)N2OS(=O)(=O)O [relebactam]
half-life [1]: approximately 2 h

Compound: NC(=O)[C@@H]1CC[C@@H]2CN1C(=O)N2OS(=O)(=O)O [avibactam]
half-life [1]: approximately 2 h

Compound: O=C(O)C[C@@H]1CC[C@H](NC(=O)Cc2cccs2)B(O)O1 [vaborbactam]
half-life [1]: approximately 2 h
